Patent US20070093491A1, “Novel condensed n-pyrazinyl-sulphonamides and their use in the treament of chemokine mediated diseases” (priority 2003, published 2007)
Structures can show the parent of a compound that is named as a salt.

Key:
[1] = biological target: T1, human recombinant CCR4 receptor (Homo sapiens, UniProt P51679); test: FMAT whole cell binding assay (FB-MDC binding to CHO-K1 cells expressing CCR4); conditions: inhibition of 2.8 nM FB-MDC binding to CHO-K1 cells stably expressing human recombinant CCR4; two hours incubation at room temperature; FMAT8100 reader
T1 construct: host or cells: CHO-K1
T1 sequence (P51679 1-360): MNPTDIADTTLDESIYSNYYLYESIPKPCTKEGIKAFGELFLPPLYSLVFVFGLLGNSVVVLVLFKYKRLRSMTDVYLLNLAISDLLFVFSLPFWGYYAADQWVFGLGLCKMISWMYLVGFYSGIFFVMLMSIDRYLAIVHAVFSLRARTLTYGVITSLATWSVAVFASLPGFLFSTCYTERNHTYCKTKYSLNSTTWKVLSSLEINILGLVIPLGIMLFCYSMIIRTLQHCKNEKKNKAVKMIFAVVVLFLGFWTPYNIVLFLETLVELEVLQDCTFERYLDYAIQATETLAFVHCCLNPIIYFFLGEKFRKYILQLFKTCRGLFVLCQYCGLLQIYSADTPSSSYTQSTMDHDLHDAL
Procedure: FMAT Whole cell Binding Assay
CHO-K1 cells stably expressing the human recombinant CCR4 receptor (Euroscreen; Brussels, Belgium) were cultured in NUT.MIX.F—12(HAM) medium with glutamax-1, containing 10% (v/v) foetal bovine serum and 400 μg ml^−1 geneticin.
Cells were harvested at approximately 70% confluence by treatment with a cell dissociation buffer, and seeded at 5×10^3 cells/100 μl culture medium into wells of a black Costar clear-bottomed 96-well microtitre plates. Plates were incubated overnight at 37° C. in 5% CO2 and used the following day.
Before use, the cell plates were washed twice with 100 μl Hanks balanced salt solution (HBSS). To each well was then added 65 μl of HBSS, 10 μL of 10% DMSO in HBSS±test compound and then 25 μL of 2.8 nM FB-MDC (Applied Biosystems). This fluorescent probe was prepared from a 10 μM stock in 0.08% (v/v) TFA/16% (v/v) acetonitrile, diluted into HBSS.
After two hours incubation in the dark at room temperature, the plates were analysed in an FMAT8100 reader (Applied Biosystems) to measure fluorescence that was associated with binding of FB-MDC to the cells. Compound activity was determined as an pIC50 [log(concentration of compound that results in 50% inhibition)], comparing fluorescence in control and background wells.

Row | Structure (SMILES) | melting point [°C] | IC50 [1] [nM]
1 | COc1nc2cccnc2nc1NS(=O)(=O)c1cccc(Cl)c1Cl (as salt: TFA) [Example 7, 2,3-Dichloro-N-(2-methoxypyrido[2,3-b]pyrazin-3-yl)benzenesulfonamide] | 238 to 239 | 
2 | COc1nc2cc(Cl)c(Cl)cc2nc1NS(=O)(=O)c1cccc(Cl)c1Cl [Example 10, 2,3-Dichloro-N-(6,7-dichloro-3-methoxyquinoxalin-2-yl)benzenesulfonamide] | 283 to 285 | 
3 | COc1cc2nc(NS(=O)(=O)c3cccc(Cl)c3Cl)c(OC)nc2cc1OC [Example 9, 2,3-Dichloro-N-(3,6,7-trimethoxyquinoxalin-2-yl)benzenesulfonamide] | 215 | 
4 | COc1nc2ccccc2nc1NS(=O)(=O)c1cccc(Cl)c1Cl [Example 1, 2,3-Dichloro-N-(3-methoxyquinoxalin-2-yl)-benzenesulfonamide] |  | 1580
5 | COc1nc2cnccc2nc1NS(=O)(=O)c1cccc(Cl)c1Cl [Example 13, 2,3-Dichloro-N-(3-methoxypyrido[3,4-b]pyrazin-2-yl)benzenesulfonamide] | 256 to 257 | 
6 | COc1nc2ncc(Br)cc2nc1NS(=O)(=O)c1cccc(Cl)c1Cl [Example 11, N-(7-Bromo-3-methoxypyrido[2,3-b]pyrazin-2-yl)-2,3-dichlorobenzenesulfonamide] | 230 to 231 | 
7 | O=S(=O)(Nc1nc2ccccc2nc1OCc1ccco1)c1cccs1 [Example 5, N-[3-(2-Furylmethoxy)quinoxalin-2-yl]thiophene-2-sulfonamide] |  | 2000
8 | COc1nc2ccccc2nc1NS(=O)(=O)c1ccc(Cl)s1 [Example 3, 5-Chloro-N-(3-methoxyquinoxalin-2-yl)thiophene-2-sulfonamide] |  | 398
9 | COc1nc2cc(Br)cnc2nc1NS(=O)(=O)c1cccc(Cl)c1Cl [Example 12, N-(7-bromo-2-methoxypyrido[2,3-b]pyrazin-3-yl)-2,3-dichlorobenzenesulfonamide] | 233 to 234 | 
